In US4853401A, “Spiro-hydantoins as aldose reductase inhibitors” (priority 1987, dated 1989):

Tests used:
[1] = system: mice; test: Effect on behaviour (Irwin method), side effects; type: in vivo
Description: The effect on behaviour was studied by a method derived from that of S. Irwin (Gordon Res. Conf. on Medicinal Chem., 133, 1959). The substances, suspended in 1% tragacanth mucilage, were orally administered via an intra-gastric probe to groups of 5 male mice fasted for 18 hours. The maximum tested dose was 3 000 mg/kg or 1 000 mg/kg, and smaller doses were tested if an effect has been observed.
(§1) Behaviour was studied, 2, 4, 6 and 24 hours after treatment. Observation was continued if symptoms persisted at that time. Deaths were recorded during the 14 days after treatment. The results are given in Table II, in which the numbers of the compounds are the same as the numbers given in column 1 of Table I.

[2] = Effect of in vivo doses on plasma glucose of diabetic rats; set-up: species or system Sprague Dawley rats; details: n = 5, average ± standard deviation
Description: Compound No. 1 (CP 3182 AR) and No. 2 (CP 3192 AR) were evaluated at various doses, using the experimental model described hereinbefore (.sctn.2.1).
In the case of each product, 25 Sprague Dawley rats fasted the previous day were made diabetic by an intraperitoneal injection of streptozotocin (75 mg/kg). The rats were divided into 5 groups of 5, each orally given 0.3, […] or 10 mg/kg of CP 3182 AR or a control.
An identical experiment was performed with CP 3192 AR at the same doses. Treatment was given immediately after the streptozotocin, and 7 and 24 hours later. The animals were sacrificed 27 hours after induction. Estimates were made of the effects of the products on the proportion of plasma glucose and the sorbitol content of the crystalline lenses and sciatic nerves of rats.

[3] = system: accumulation of sorbitol in the crystalline lenses; test: Inhibition of accumulation of sorbitol in crystalline lenses of diabetic rats; type: in vivo, Sprague Dawley rats; details: for Inhibition of accumulation of sorbitol in vivo, crystalline lenses: oral 25 mg/kg at 0, 7 and 24 h, sacrificed 27 h; for inhibition of accumulation of sorbitol in crystalline lenses and sciatic nerves (in words): oral 25 mg/kg
Description: (§2) 2.1 Inhibition of accumulation of sorbitol in crystalline lenses and nerves of diabetic rats:
(§3) The effects of the products according to the invention on the proportion of plasma glucose and the accumulation of sorbitol in the crystalline lenses and sciatic nerves of rats made diabetic by streptozotocin were examined by the method of M. J. Peterson, et al (Metabolism, 28, 456-461 (1979)).
(§4) Fasted Sprague Dawley rats were made diabetic by intraperitoneal injection of streptozotocin (75 mg/kg). The product under test was orally administered at a dose of 25 mg/kg after 0, 7 and 24 hours. The rats were sacrificed 27 hours after induction of diabetes. The crystalline lenses and sciatic nerves were taken and preserved at -20° C. until analysed. The crystalline lenses and sciatic nerves were homogenized in water and the proteins were precipitated from ethanol. The precipitate was eliminated by centrifuging and the supernatant liquid was lyophylised. The sorbitol in the sample was determined by the method of B. Bjorkqvist (J. of Chromatograph, 218, 65-71 (1981)), adapted by A. Lenaers et al. (Arch. Intern. Physiol. Bioch., 91, B, 62-63 (1983)).
(§5) The sample was dissolved in pyridine containing galactitol as an internal standard. Derivatives were formed therefrom by phenylisocyanate during incubation for 1 hour at 60° C. The reaction was then stopped by adding methanol and the derivatives were separated and determined by HPLC.
(§6) The results are expressed as percentage inhibition of the accumulation of sorbitol, compared with the controls.

[4] = system: sorbitol accumulation in crystalline lenses; test: Effect of in vivo doses on sorbitol accumulation in crystalline lenses of diabetic rats; set-up: species or system Sprague Dawley rats; details: for ED50: Rattus norvegicus, 27 h, diabetic rats, oral, read-out: ED50 (dose at which measured inhibition of aldose reductase activity is 50%); for ED50 / therapeutic index MED/ED50, crystalline lenses: crystalline lenses
Text: (§7) 2.2 Effect of "in vivo" doses on sorbitol accumulation in sciatic nerves and crystalline lenses of diabetic rats:
(§8) Estimates were made of the effects of the products on the proportion of plasma glucose and the sorbitol content of the crystalline lenses and sciatic nerves of rats.

[5] = Acute oral toxicity (LD50); type: in vivo; details: mouse, in vivo, mice, read-out: Lethal dose LD50
Description: (§9) The LD 50 was calculated by the method of Litchfield and Wilcoxon (J. Pharmacol. Exp. Ther., 96, 99, 1949) and is expressed in mg/kg. The products were orally administered to mice.
as §1

[6] = system: sorbitol accumulation in sciatic nerves; test: Effect of in vivo doses on sorbitol accumulation in sciatic nerves of diabetic rats; set-up: species or system Sprague Dawley rats; details: for ED50: Rattus norvegicus, 27 h, diabetic rats, oral, read-out: ED50 (dose at which measured inhibition of aldose reductase activity is 50%); for ED50 / therapeutic index MED/ED50, sciatic nerves: sciatic nerves
Text: as §7, §8

[7] = system: accumulation of sorbitol in the sciatic nerves; test: Inhibition of accumulation of sorbitol in sciatic nerves of diabetic rats; type: in vivo, Sprague Dawley rats; details: oral 25 mg/kg at 0, 7 and 24 h, sacrificed 27 h
Description: as §2, §3, §4, §5, §6

[8] = system: accumulation of galactitol in fibroblasts obtained from human skin; test: Inhibition of accumulation of galactitol in fibroblasts; type: cell-based; details: Fibroblast, 48 h, 37° C., galactose 3 mg/ml; for inhibition at 100 µM: 10^-4 M; for inhibition at 10 µM: 10^-5 M; for inhibition at 1 µM: 10^-6 M
Description: 1.2 Inhibiting effect on accumulation of galactitol:
A test for evaluating this activity was made in vitro on fibroblasts obtained from human skin.
An experimental model culture was obtained by incubating the cells in the presence of a medium containing a high concentration of galactose (3 mg/ml) and the product under test, and measuring the accumulation of galactitol in the cells after a 48-hour incubation period at 37° C. The cells were then isolated, washed in physiological salt solution and treated with a water-ethanol solution. The medium was centrifuged and the supernatant liquid was lyophylized.
The galactitol in the resulting sample was determined by HPLC (=high pressure liquid chromatography) after derivatives had been obtained with phenyl isocyanate.
The proportion of proteins in the precipitate obtained during the previously-mentioned centrifuging was measured by the method of M. M. Bradford (Anal. Biochem., 72, 248-254 (1976)) and indicated the number of cells present in the sample.
The inhibiting effect of the tested product was expressed as a percentage inhibition of intracellular accumulation of galactitol compared with the controls.

[9] = target: T1, aldose reductase (Rattus norvegicus, UniProt P07943); test: Inhibition of enzymatic activity of aldose reductase in vitro; type: biochemical; details: 10^-4 M, rat crystalline lens enzyme, pH 6.2, D,L-glyceraldehyde substrate; read-out: Inhibition of enzymatic activity of AR in vitro
T1 construct: The supernatant liquid formed the enzyme solution used for the test; from tissue; host or cells: rat crystalline lens, water homogenate, supernatant
Text: 1.1 Inhibiting effect on enzymatic activity of aldose reductase:
The method described by S. Hayman and J. H. Kinoshita (J. Biol. Chem., 240, 877 (1965)) was used for in vitro testing of the aforementioned effect of the products according to the invention.
Rat's crystalline lens was homogenized in water and centrifuged to eliminate insoluble substances. The supernatant liquid formed the enzyme solution used for the test.
(§10) The effect of products according to the invention in inhibiting enzymatic activity of aldose reductase was determined by spectrophotometrically following for 5 minutes the disappearance of NADPH in an aqueous solution containing 0.067M phosphate buffer (final pH: 6.2), 0.40M lithium sulphate, 5.10^-5 M NADPH, 10^-4 M of the product under test and 100 μl of the enzyme solution, to which 10^-2 M of D,L-glyceraldehyde had been added as substrate. (NADPH=reduced form of nicotinamide adenine dinucleotide phosphate).
The inhibiting effect observed in the presence of 10^-4 M of product under test relative to the reaction in the absence of a compound according to the invention, is expressed as a percentage.

[10] = Solubility in the aldose reductase test medium; type: physicochemical; details: 10^-4 M, aqueous phosphate buffer pH 6.2
Description: as §10

[11] = system: mice; test: Acute oral toxicity (LD50); type: in vivo; details: 3 000 mg/kg
Description: as §9, §1

Structure (SMILES)	Inhibition of accumulation of sorbitol in vivo, crystalline lenses [3] [%]	inhibition of accumulation of sorbitol in crystalline lenses and sciatic nerves (in words) [3]	ED50 [4] [mg/kg]	therapeutic index MED/ED50, crystalline lenses [4]	LD50 at 336 h [5] [mg/kg]	ED50 [6] [mg/kg]	therapeutic index MED/ED50, sciatic nerves [6]	Inhibition of accumulation of sorbitol in vivo, in sciatic nerves [7] [%]	inhibition at 100 µM [8] [%]	inhibition at 10 µM [8] [%]	inhibition at 1 µM [8] [%]	also measured
O=C1N(CO)C(=O)C2(c3ccccc3-c3ccccc32)N1CO [Compound 1, bis-(1',3'-hydroxymethyl)-spiro-/fluorene-9,4'-imidazolidine/-2',5'-dione]	81	particularly active	3	about 1 000	> 3000	1	above 3 000	85	85	58	21	side effect observed ([1]; dose of 3000 mg/kg): no side effect was observed; MED (minimum dose at which a side effect is observed) ([1]; mice, oral): > 3 000 mg/kg; Plasma glucose ([2]; 0.3 mg/kg oral): 462 ± 60 mg/100 ml; Plasma glucose ([2]; 1 mg/kg oral): 538 ± 34 mg/100 ml; Plasma glucose ([2]; 3 mg/kg oral): 464 ± 62 mg/100 ml; Plasma glucose ([2]; 10 mg/kg oral): 424 ± 37 mg/100 ml; % inhibition of sorbitol accumulation, Crystalline lenses ([4]; 0.3 mg/kg oral at 0, 7, 24 h): 0 ± 21%; % inhibition of sorbitol accumulation, Crystalline lenses ([4]; 1 mg/kg oral at 0, 7, 24 h): 1 ± 3%; % inhibition of sorbitol accumulation, Crystalline lenses ([4]; 3 mg/kg oral at 0, 7, 24 h): 41%; % inhibition of sorbitol accumulation, Crystalline lenses ([4]; 10 mg/kg oral at 0, 7, 24 h): 71%; % inhibition of sorbitol accumulation, Sciatic nerves ([6]; 0.3 mg/kg oral at 0, 7, 24 h): 29 ± 14%; % inhibition of sorbitol accumulation, Sciatic nerves ([6]; 1 mg/kg oral at 0, 7, 24 h): 41 ± 10%; % inhibition of sorbitol accumulation, Sciatic nerves ([6]; 3 mg/kg oral at 0, 7, 24 h): 69 ± 8%; % inhibition of sorbitol accumulation, Sciatic nerves ([6]; 10 mg/kg oral at 0, 7, 24 h): 82 ± 6%; inhibition at 100 µM [9]: 34%
CCC(=O)OCN1C(=O)N(COC(=O)CC)C2(C1=O)c1ccccc1-c1ccccc12 [Compound 5, bis-(1',3'-propanoyloxymethyl)-spiro-[fluorene-9,4'-imidazolidine]-2',5'-dione]	74	particularly active						81	91	56	24	
O=C(Cc1ccccc1)OCN1C(=O)N(COC(=O)Cc2ccccc2)C2(C1=O)c1ccccc1-c1ccccc12 [Compound 23]	5							7				insolubility in the tested medium [10]: insol
O=C1NC(=O)[C@@]2(CCOc3ccc(F)cc32)N1 [sorbinil, d-6-fluoro-spiro-/chromane-4,4'-imidazolidine/-2',5'-dione, reference compound]	93		1	300	1450	1	300	85				MED (minimum dose at which a side effect is observed) ([1]; mouse, in vivo, po): 300 mg/kg; duration of side effects ([1]; mouse, in vivo, po, 300 mg/kg): more than 24 hours; side-effects ([1]; mouse, in vivo, po, 300 mg/kg): depression with loss of righting reflex and muscular hypotonia; mortality [11]: all the mice died on the second day
